Experimental data taken from patent publication US11744907B2, “Predicting peptide receptor radiotherapy using a gene expression assay” (Liquid Biopsy Research LLC, priority 2017, dated 2023).

Experiments:
[1] = system: midgut NETs; details: midgut NETs progressive on standard octreotide LAR treatment; cited from earlier work
[2] = system: neuroendocrine tumor (NET); experiment: Progression-free survival of PPQ-negative subjects after PRRT or PRRT plus chemotherapy; type: in vivo, human; details: PPQ predicted non responders; standard 4 cycle PRRT
Text: Clinical outcomes of patients that were identified by the PPQ to be a predicted non-responder to PRRT therapy were further analyzed. […] Thus, the PPQ can be used to identify patients that require additional agents (e.g. immune-related treatments or chemotherapy) to be used with PRRT and thereby optimize outcomes.

C[C@@H](O)[C@H](NC(=O)[C@@H]1CSSC[C@H](NC(=O)[C@@H](Cc2ccccc2)NC(=O)CN2CCN(CC(=O)[O-])CCN(CC(=O)[O-])CCN(CC(=O)[O-])CC2)C(=O)N[C@@H](Cc2ccc(O)cc2)C(=O)N[C@H](Cc2c[nH]c3ccccc23)C(=O)N[C@@H](CCCCN)C(=O)N[C@@H]([C@@H](C)O)C(=O)N1)C(=O)O.[177Lu+3] [Lutathera, ^177Lu-DOTA-Tyr^3-Thr^8-octreotide]
efficacy versus high-dose octreotide [1]: more effective than high-dose octreotide somatostatin analogs
median PFS [2]: 9 months
